# In US7160880B1, “Short-acting benzodiazepines” (CeNeS Limited, priority 1999, dated 2007):
# Like-named read-outs stand apart in the source and are kept apart here.
# How the values were obtained:
# male Wistar rats = assay: Loss of the righting reflex (LRR) in rats; assay type: in vivo, rat; conditions: i.v. via tail vein, dose in the range of 10–100 mg/kg
# Description: The intrinsic efficacy of a compound was assessed by its ability to cause loss of the righting reflex (LRR) in rats, an effect associated with benzodiazepine full agonism.
# Method: Subjects for these studies were male Wistar rats, weighing approximately 250–350 grams. To assess loss of righting reflex (LRR), animals were placed in plastic restrainers and test compounds were administered i.v. via the tail vain. Subjects were immediately removed from the restrainer and the time to onset of loss of righting reflex was recorded. LRR was defined as the loss of an animal's ability to right itself when placed in a supine position. […] Compounds producing LRR were evaluated by three measures: 1) Time to onset of LRR (as described above) 2) Time to recover from LRR. An animal met this criteria when able to right itself three consecutive times after losing its righting reflex 3) Total recovery time. Total recovery was measured by the animal's ability to walk without ataxia as well as its ability to pull itself up three consecutive times when suspended from a horizontal wire. […] The therapeutically useful dosage range for administration to mammals is 0.01 to 5.0 mg/kg of body weight.
# [1] = target: benzodiazepine receptor (benzodiazepine site on the GABAA receptor complex); assay: Benzodiazepine radioligand (3H-flunitrazepam) binding assay
# [2] = read-out: Benzodiazepine receptor binding Ki, 3H-flunitrazepam, brain membrane homogenates, 90 minutes at 4° C., tissue species of the tabulated values not stated
structure (smiles),measurement,setting,value
COC(=O)CC[C@@H]1N=C(c2ccccc2Cl)c2cc(Cl)ccc2NC1=O [Example 1-7],loss of righting reflex (LRR),male Wistar rats,producing loss-of-righting
same,Ki,[1]; [2],1 to 50 nM
COC(=O)CC[C@@H]1N=C(c2ccccn2)c2cc(Cl)ccc2-n2ccnc21 [Example 1c-6],loss of righting reflex (LRR),male Wistar rats,producing loss-of-righting
same,Ki,[1]; [2],51 to 100 nM
CCCCOC(=O)CC[C@@H]1N=C(c2ccccn2)c2cc(Cl)ccc2NC1=O [Example 1-18],Ki,[1]; [2],101 to 1000 nM
COC(=O)CC[C@@H]1N=C(c2ccccc2F)c2cc(Cl)ccc2-n2c1cnc2C (racemic) [Example 1c-18],loss of righting reflex (LRR),male Wistar rats,producing loss-of-righting
same,Ki,[1]; [2],1 to 50 nM
COC(=O)CC[C@@H]1N=C(c2ccccc2F)c2cc(Cl)ccc2-n2ccnc21 [Example 1c-1],loss of righting reflex (LRR),male Wistar rats,producing loss-of-righting
same,Ki,[1]; [2],1 to 50 nM
COC(=O)CC[C@@H]1N=C(c2ccccn2)c2cc(Cl)ccc2-n2cc(CO)nc21 [Example 1c-11],Ki,[1]; [2],101 to 1000 nM
COC(=O)CC[C@H]1C(=O)Nc2ccc(Cl)cc2C(c2ccccc2F)=[N+]1[O-] [Example 1-31],Ki,[1]; [2],51 to 100 nM
COC(=O)CC[C@@H]1N=C(c2ccccn2)c2cc(Br)ccc2-n2cc(C)nc21 [Example 1c-9],Ki,[1]; [2],1 to 50 nM
CCOC(=O)C[C@@H]1N=C(c2ccccc2F)c2cc(Cl)ccc2NC1=O [Example 1-20],Ki,[1]; [2],1 to 50 nM
CCCCOC(=O)CC[C@@H]1N=C(c2ccccc2F)c2cc(Cl)ccc2NC1=O [Example 1-17],loss of righting reflex (LRR),male Wistar rats,producing loss-of-righting
same,Ki,[1]; [2],101 to 1000 nM
COC(=O)CC[C@@H]1N=C(c2ccccc2F)c2cc(Cl)ccc2-n2cc(C)nc21 [Example 1c-3],loss of righting reflex (LRR),male Wistar rats,producing loss-of-righting
same,Ki,[1]; [2],1 to 50 nM
O=C(CC[C@@H]1N=C(c2ccccn2)c2cc(Cl)ccc2NC1=O)OCc1ccccc1 [Example 1-9],loss of righting reflex (LRR),male Wistar rats,producing loss-of-righting
same,Ki,[1]; [2],101 to 1000 nM
CCNC1=Nc2ccc(Cl)cc2C(c2ccccc2F)=N[C@H]1CCC(=O)OC [Example 1b-3],Ki,[1]; [2],101 to 1000 nM
COC(=O)CCC[C@@H]1N=C(c2ccccc2F)c2cc([N+](=O)[O-])ccc2NC1=O [Example 1-13],Ki,[1]; [2],1 to 50 nM
CCN(CC)CCN1C(=O)[C@H](CCC(=O)OCc2ccccc2)N=C(c2ccccc2F)c2cc(Cl)ccc21 [Example 1-25],Ki,[1]; [2],51 to 100 nM
COC(=O)CNC1N=C(c2ccccc2Cl)c2cc(Cl)ccc2NC1=O (stereo not drawn) [Example 1-26],Ki,[1]; [2],51 to 100 nM
Cc1nnc2n1-c1ccc(Cl)cc1C(c1ccccc1F)=N[C@H]2CCC(=O)OCC(C)C [Example 1c-16],Ki,[1]; [2],1 to 50 nM
COC(=O)CC[C@@H]1N=C(c2ccccc2F)c2cc(Cl)ccc2N(C)C1=O [Example 1-23],loss of righting reflex (LRR),male Wistar rats,producing loss-of-righting
same,Ki,[1]; [2],1 to 50 nM
COC(=O)CC[C@H]1N=C(c2ccccc2F)c2cc(Cl)ccc2NC1=O [Example 1-4],loss of righting reflex (LRR),male Wistar rats,producing loss-of-righting
same,Ki,[1]; [2],101 to 1000 nM
COC(=O)CC[C@@H]1N=C(c2ccccc2F)c2cc(Cl)ccc2-n2c(C)nnc21 [Example 1c-15],loss of righting reflex (LRR),male Wistar rats,producing loss-of-righting
same,Ki,[1]; [2],1 to 50 nM
COC(=O)CC[C@@H]1N=C(c2ccccc2F)c2cc(Cl)ccc2-n2cc(CO)nc21 [Example 1c-4],Ki,[1]; [2],1 to 50 nM
COC(=O)CC[C@@H]1N=C(c2ccccn2)c2cc(Cl)ccc2-n2c(CO)cnc21 [Example 1c-12],Ki,[1]; [2],101 to 1000 nM
COC(=O)CCC[C@@H]1N=C(c2ccccc2F)c2cc(Cl)ccc2NC1=O [Example 1-8],Ki,[1]; [2],1 to 50 nM
COC(=O)CC[C@@H]1N=C(c2ccccc2F)c2cc(Cl)ccc2-n2c(C)cnc21 [Example 1c-2],loss of righting reflex (LRR),male Wistar rats,producing loss-of-righting
same,Ki,[1]; [2],1 to 50 nM
CCN(CC)CCN1C(=O)[C@H](CCC(=O)OC)N=C(c2ccccc2F)c2cc(Cl)ccc21 [Example 1-22],Ki,[1]; [2],101 to 1000 nM
COC(=O)CC[C@@H]1N=C(c2ccccc2F)c2cc(Cl)ccc2N=C1NCC(C)C [Example 1b-7],Ki,[1]; [2],> 1000 nM
CC(C)OC(=O)CC[C@@H]1N=C(c2ccccc2F)c2cc(Cl)ccc2NC1=O [Example 1-21],Ki,[1]; [2],1 to 50 nM
COC(=O)CC[C@@H]1N=C(c2ccccn2)c2cc(Cl)ccc2-n2c(C)cnc21 [Example 1c-7],loss of righting reflex (LRR),male Wistar rats,producing loss-of-righting
same,Ki,[1]; [2],51 to 100 nM
COC(=O)CC[C@@H]1N=C(c2ccccc2F)c2cc(Cl)ccc2-n2c(CO)cnc21 [Example 1c-5],Ki,[1]; [2],1 to 50 nM
COC(=O)CC[C@@H]1N=C(c2ccccc2F)c2cc(Cl)ccc2NC1=O [Example 1-2],Ki,[1]; [2],51 to 100 nM
CN1C(=O)[C@H](CC(=O)OCc2ccccc2)N=C(c2ccccc2F)c2cc(Cl)ccc21 [Example 1-24],Ki,[1]; [2],51 to 100 nM
COC(=O)CC[C@@H]1N=C(c2ccccc2F)c2cc(Cl)ccc2N=C1NCCc1c[nH]cn1 [Example 1b-8],Ki,[1]; [2],101 to 1000 nM
COC(=O)CC[C@@H]1N=C(c2ccccn2)c2cc(Cl)ccc2-n2c1nc(C)c2C [Example 1c-13],Ki,[1]; [2],101 to 1000 nM
O=C(CC[C@@H]1N=C(c2ccccc2F)c2cc(Cl)ccc2NC1=O)OCc1ccccc1 [Example 1-5],loss of righting reflex (LRR),male Wistar rats,producing loss-of-righting
same,Ki,[1]; [2],1 to 50 nM
"COC(=O)CC[C@@H]1N=C(c2ccccc2F)c2cc(Cl)ccc2NC1=O [Example 1-1, Methyl 3-[(3S)-7-chloro-5-(2-fluorophenyl)-2-oxo-2,3-dihydro-1H-1,4-benzodiazepin-3-yl]propanoate]",loss of righting reflex (LRR),male Wistar rats,producing loss-of-righting
same,Ki,[1]; [2],1 to 50 nM
COC(=O)CC[C@@H]1N=C(c2ccccn2)c2cc(Cl)ccc2-n2cc(C)nc21 [Example 1c-10],loss of righting reflex (LRR),male Wistar rats,producing loss-of-righting
same,Ki,[1]; [2],51 to 100 nM
COC(=O)CC[C@@H]1N=C(c2ccccc2Cl)c2cc(Cl)ccc2-n2c(C)nnc21 [Example 1c-14],loss of righting reflex (LRR),male Wistar rats,producing loss-of-righting
same,Ki,[1]; [2],1 to 50 nM
"COC(=O)CC[C@@H]1N=C(c2ccccn2)c2cc(Br)ccc2-n2c(C)cnc21 [Example 1c-8, Methyl 3-[(4S)-8-bromo-1-methyl-6-(2-pyridinyl)-4H-imidazo[1,2-a][1,4]benzodiazepin-4-yl]propanoate]",loss of righting reflex (LRR),male Wistar rats,producing loss-of-righting
same,Ki,[1]; [2],1 to 50 nM
COC(=O)CC[C@@H]1N=C(c2ccccn2)c2cc(Cl)ccc2NC1=O [Example 1-11],loss of righting reflex (LRR),male Wistar rats,producing loss-of-righting
same,Ki,[1]; [2],101 to 1000 nM
COC(=O)CC[C@@H]1N=C(c2ccccc2F)c2cc(Cl)ccc2N=C1NCCc1ccncc1 [Example 1b-6],Ki,[1]; [2],101 to 1000 nM
CC(C)COC(=O)CC[C@@H]1N=C(c2ccccn2)c2cc(Cl)ccc2NC1=O [Example 1-19],Ki,[1]; [2],101 to 1000 nM
COC(=O)CC[C@@H]1N=C(c2ccccc2F)c2cc(Cl)ccc2-n2cncc21 [Example 1c-17],loss of righting reflex (LRR),male Wistar rats,producing loss-of-righting
same,Ki,[1]; [2],101 to 1000 nM
CCOC(=O)CC[C@@H]1N=C(c2ccccn2)c2cc(Cl)ccc2NC1=O [Example 1-15],Ki,[1]; [2],101 to 1000 nM
COC(=O)CC[C@@H]1N=C(c2ccccc2F)c2cc(Br)ccc2NC1=O [Example 1-3],loss of righting reflex (LRR),male Wistar rats,producing loss-of-righting
same,Ki,[1]; [2],1 to 50 nM
COC(=O)CCNC1N=C(c2ccccc2Cl)c2cc(Cl)ccc2NC1=O (stereo not drawn) [Example 1-27],Ki,[1]; [2],1 to 50 nM
COC(=O)CC[C@@H]1N=C(c2ccccc2F)c2cc(Cl)ccc2N=C1NCc1ccncc1 [Example 1b-5],Ki,[1]; [2],> 1000 nM
COC(=O)CC[C@@H]1N=C(c2ccccc2F)c2cc(Cl)ccc2N=C1NCc1ccccc1 [Example 1b-4],Ki,[1]; [2],101 to 1000 nM
CNC1=Nc2ccc(Br)cc2C(c2ccccc2F)=N[C@H]1CCC(=O)OC [Example 1b-10],loss of righting reflex (LRR),male Wistar rats,producing loss-of-righting
same,Ki,[1]; [2],1 to 50 nM
COC(=O)CC[C@@H]1N=C(c2ccccn2)c2cc(Br)ccc2NC1=O [Example 1-10],Ki,[1]; [2],51 to 100 nM
"CN1C(=O)CN=C(c2ccccc2Cl)c2cc(Cl)ccc21 [2′-chlorodiazepam, reference compound]",Ki,[1]; compound used at 10 μM to define nonspecific binding,0.5 nM
COC(=O)CC[C@@H]1N=C(c2ccccc2F)c2cc(Cl)ccc2N=C1NCCO [Example 1b-9],Ki,[1]; [2],101 to 1000 nM
CCCOC(=O)CC[C@@H]1N=C(c2ccccn2)c2cc(Cl)ccc2NC1=O [Example 1-14],Ki,[1]; [2],101 to 1000 nM
CNC1=Nc2ccc(Cl)cc2C(c2ccccc2F)=N[C@H]1CCC(=O)OC [Example 1b-1],loss of righting reflex (LRR),male Wistar rats,producing loss-of-righting
same,Ki,[1]; [2],51 to 100 nM
COC(=O)CC[C@@H]1N=C(c2ccccc2F)c2cc(Cl)ccc2-n2cc(COC(C)(C)C)nc21 [Example 1c-19],Ki,[1]; [2],1 to 50 nM
O=C(CC[C@@H]1N=C(c2ccccc2F)c2cc(Cl)ccc2NC1=O)OCc1ccccc1 [Example 1-6],loss of righting reflex (LRR),male Wistar rats,producing loss-of-righting
same,Ki,[1]; [2],101 to 1000 nM
